Test results published in patent US6809065B2, “Herbicide containing substituted pyrazole derivative as active ingredient” (SDS Biotech K.K., priority 2001, dated 2004).

How the values were obtained:
[1] = test system: wheat (Triticum aestivum); assay: Upland field foliage treatment (Test Example 1), crop; type: in vivo; details: foliage treatment 14th day after sowing, 1 kg active ingredient per hectare, evaluated 21st day, lower index = higher safety
In short: (§1)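 Foliage application took place two weeks after sowing, at an active-ingredient rate of 1 kg/ha from a water-diluted wettable powder. Rating followed on the 21st day after application, using an index scale on which crop values rise as injury increases.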

soybean (Glycine max) [2] = assay: as above; type: in vivo; details: foliage treatment 14th day after sowing, 1 kg active ingredient per hectare, evaluated 21st day, lower index = higher safety
In short: as §1

Digitaria adscendens [3] = assay: Upland soil treatment (Test Example 2); type: in vivo; details: soil surface treatment next day after sowing, wettable powder, 1 kg active ingredient per hectare, evaluated 21st day after application
In short: (§2)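 Index rating at day 21 after a single pre-emergence soil-surface application, 1 kg a.i./ha, made the day after sowing in upland soil; for crops a lower index indicates higher safety.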

Stellaria media [4] = assay: Upland soil treatment (Test Example 2); type: in vivo; details: soil surface treatment next day after sowing, wettable powder, 1 kg active ingredient per hectare, evaluated 21st day after application
In short: as §2

Setaria viridis [5] = assay: Upland soil treatment (Test Example 2); type: in vivo; details: soil surface treatment next day after sowing, wettable powder, 1 kg active ingredient per hectare, evaluated 21st day after application
In short: as §2

Chenopodium album [6] = assay: Upland soil treatment (Test Example 2); type: in vivo; details: soil surface treatment next day after sowing, wettable powder, 1 kg active ingredient per hectare, evaluated 21st day after application
In short: as §2

Monochoria vaginalis = assay: Paddy field treatment (Test Example 3); type: in vivo; details: paddy pot, submerged 4 cm, dropped on water surface 10th day after transplantation, 1 kg active ingredient per hectare, evaluated 21st day
In short: (§3)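 Index scores for herbicidal effect were read 21 days after treatment, higher meaning stronger effect. Treatment was a water-diluted wettable powder dropped onto flooded paddy soil at 1 kg active ingredient per hectare, 10 days after rice transplantation.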

Scirpus juncoides = assay: Paddy field treatment (Test Example 3); type: in vivo; details: paddy pot, submerged 4 cm, dropped on water surface 10th day after transplantation, 1 kg active ingredient per hectare, evaluated 21st day
In short: as §3

Ammannia multiflora = assay: Paddy field treatment (Test Example 3); type: in vivo; details: paddy pot, submerged 4 cm, dropped on water surface 10th day after transplantation, 1 kg active ingredient per hectare, evaluated 21st day
In short: as §3

[7] = test system: rice (Oryza sative, variety: Koshihikari); assay: Paddy field treatment (Test Example 3), crop; type: in vivo, Oryza sativa; details: transplanted rice two-leaf period, water surface treatment 10th day after transplantation, 1 kg active ingredient per hectare, evaluated 21st day, lower index = higher safety
In short: as §3

Echinochloa spp. = assay: Paddy field treatment (Test Example 3); type: in vivo, Echinochloa crusgalli; details: paddy pot, submerged 4 cm, dropped on water surface 10th day after transplantation, 1 kg active ingredient per hectare, evaluated 21st day
In short: as §3

[8] = test system: wheat (Triticum aestivum); assay: Upland soil treatment (Test Example 2), crop; type: in vivo; details: soil surface treatment next day after sowing, 1 kg active ingredient per hectare, evaluated 21st day, lower index = higher safety
In short: as §2

soybean (Glycine max) [9] = assay: Upland soil treatment (Test Example 2), crop; type: in vivo; details: soil surface treatment next day after sowing, 1 kg active ingredient per hectare, evaluated 21st day, lower index = higher safety
In short: as §2

Digitaria adscendens [10] = assay: Upland field foliage treatment (Test Example 1); type: in vivo; details: foliage treatment 14th day after sowing, wettable powder, 1 kg active ingredient per hectare, evaluated 21st day after application
In short: as §1

Stellaria media [11] = assay: Upland field foliage treatment (Test Example 1); type: in vivo; details: foliage treatment 14th day after sowing, wettable powder, 1 kg active ingredient per hectare, evaluated 21st day after application
In short: as §1

Setaria viridis [12] = assay: Upland field foliage treatment (Test Example 1); type: in vivo; details: foliage treatment 14th day after sowing, wettable powder, 1 kg active ingredient per hectare, evaluated 21st day after application
In short: as §1

Chenopodium album [13] = assay: Upland field foliage treatment (Test Example 1); type: in vivo; details: foliage treatment 14th day after sowing, wettable powder, 1 kg active ingredient per hectare, evaluated 21st day after application
In short: as §1

| SMILES | Herbicidal activity Triticum aestivum [1] | Herbicidal activity Glycine max (soybean (Glycine max) [2]) | Herbicidal activity Digitaria adscendens (Digitaria adscendens [3]) | Herbicidal activity Stellaria media (Stellaria media [4]) | Herbicidal activity Setaria viridis (Setaria viridis [5]) | Herbicidal activity Chenopodium album (Chenopodium album [6]) | Herbicidal activity Monochoria vaginalis (Monochoria vaginalis) | Herbicidal activity Scirpus juncoides (Scirpus juncoides) | Herbicidal activity Ammannia multiflora (Ammannia multiflora) | Herbicidal activity Oryza sativa [7] | Herbicidal activity Echinochloa spp. (Echinochloa spp.) | Herbicidal activity Triticum aestivum [8] | Herbicidal activity Glycine max (soybean (Glycine max) [9]) | Herbicidal activity Digitaria adscendens (Digitaria adscendens [10]) | Herbicidal activity Stellaria media (Stellaria media [11]) | Herbicidal activity Setaria viridis (Setaria viridis [12]) | Herbicidal activity Chenopodium album (Chenopodium album [13]) |
| --- | --- | --- | --- | --- | --- | --- | --- | --- | --- | --- | --- | --- | --- | --- | --- | --- | --- |
| COC=C(Cn1nc(-c2ccccc2Cl)c(Cl)c1C)C(=O)OC [Compound 18] | 0 (herbicidal effect of not less than 0% by weight and less than 10% by weight) | 0 (herbicidal effect of not less than 0% by weight and less than 10% by weight) | 5 (herbicidal effect of not less than 90% by weight) | 5 (herbicidal effect of not less than 90% by weight) | 4 (herbicidal effect of not less than 70% by weight and less than 90% by weight) | 5 (herbicidal effect of not less than 90% by weight) | 5 (herbicidal effect of not less than 90% by weight) | 5 (herbicidal effect of not less than 90% by weight) | 5 (herbicidal effect of not less than 90% by weight) | 1 (herbicidal effect of not less than 10% by weight and less than 30% by weight) | 5 (herbicidal effect of not less than 90% by weight) | 0 (herbicidal effect of not less than 0% by weight and less than 10% by weight) | 0 (herbicidal effect of not less than 0% by weight and less than 10% by weight) | 5 (herbicidal effect of not less than 90% by weight) | 5 (herbicidal effect of not less than 90% by weight) | 4 (herbicidal effect of not less than 70% by weight and less than 90% by weight) | 5 (herbicidal effect of not less than 90% by weight) |
| COC=C(Cn1nc(-c2cc(C)ccc2C)c(Cl)c1C)C(=O)OC [Compound 19] | 0 (herbicidal effect of not less than 0% by weight and less than 10% by weight) | 0 (herbicidal effect of not less than 0% by weight and less than 10% by weight) | 5 (herbicidal effect of not less than 90% by weight) | 5 (herbicidal effect of not less than 90% by weight) | 4 (herbicidal effect of not less than 70% by weight and less than 90% by weight) | 4 (herbicidal effect of not less than 70% by weight and less than 90% by weight) | 5 (herbicidal effect of not less than 90% by weight) | 5 (herbicidal effect of not less than 90% by weight) | 5 (herbicidal effect of not less than 90% by weight) | 1 (herbicidal effect of not less than 10% by weight and less than 30% by weight) | 5 (herbicidal effect of not less than 90% by weight) | 0 (herbicidal effect of not less than 0% by weight and less than 10% by weight) | 0 (herbicidal effect of not less than 0% by weight and less than 10% by weight) | 5 (herbicidal effect of not less than 90% by weight) | 4 (herbicidal effect of not less than 70% by weight and less than 90% by weight) | 4 (herbicidal effect of not less than 70% by weight and less than 90% by weight) | 5 (herbicidal effect of not less than 90% by weight) |
| COC=C(Cn1nc(-c2cccc(Cl)c2Cl)c(Cl)c1C)C(=O)OC [Compound 20] | 0 (herbicidal effect of not less than 0% by weight and less than 10% by weight) | 0 (herbicidal effect of not less than 0% by weight and less than 10% by weight) | 4 (herbicidal effect of not less than 70% by weight and less than 90% by weight) | 4 (herbicidal effect of not less than 70% by weight and less than 90% by weight) | 4 (herbicidal effect of not less than 70% by weight and less than 90% by weight) | 5 (herbicidal effect of not less than 90% by weight) | 5 (herbicidal effect of not less than 90% by weight) | 4 (herbicidal effect of not less than 70% by weight and less than 90% by weight) | 5 (herbicidal effect of not less than 90% by weight) | 0 (herbicidal effect of not less than 0% by weight and less than 10% by weight) | 4 (herbicidal effect of not less than 70% by weight and less than 90% by weight) | 0 (herbicidal effect of not less than 0% by weight and less than 10% by weight) | 0 (herbicidal effect of not less than 0% by weight and less than 10% by weight) | 4 (herbicidal effect of not less than 70% by weight and less than 90% by weight) | 5 (herbicidal effect of not less than 90% by weight) | 4 (herbicidal effect of not less than 70% by weight and less than 90% by weight) | 5 (herbicidal effect of not less than 90% by weight) |
| COC=C(Cn1nc(-c2ccc(Cl)cc2Cl)c(Cl)c1C)C(=O)OC [Compound 21] | 0 (herbicidal effect of not less than 0% by weight and less than 10% by weight) | 1 (herbicidal effect of not less than 10% by weight and less than 30% by weight) | 4 (herbicidal effect of not less than 70% by weight and less than 90% by weight) | 4 (herbicidal effect of not less than 70% by weight and less than 90% by weight) | 4 (herbicidal effect of not less than 70% by weight and less than 90% by weight) | 4 (herbicidal effect of not less than 70% by weight and less than 90% by weight) | 5 (herbicidal effect of not less than 90% by weight) | 4 (herbicidal effect of not less than 70% by weight and less than 90% by weight) | 5 (herbicidal effect of not less than 90% by weight) | 0 (herbicidal effect of not less than 0% by weight and less than 10% by weight) | 5 (herbicidal effect of not less than 90% by weight) | 0 (herbicidal effect of not less than 0% by weight and less than 10% by weight) | 0 (herbicidal effect of not less than 0% by weight and less than 10% by weight) | 5 (herbicidal effect of not less than 90% by weight) | 5 (herbicidal effect of not less than 90% by weight) | 4 (herbicidal effect of not less than 70% by weight and less than 90% by weight) | 5 (herbicidal effect of not less than 90% by weight) |
| COC=C(Cn1nc(-c2cc(Cl)ccc2Cl)c(Cl)c1C)C(=O)OC [Compound 22] | 0 (herbicidal effect of not less than 0% by weight and less than 10% by weight) | 0 (herbicidal effect of not less than 0% by weight and less than 10% by weight) | 5 (herbicidal effect of not less than 90% by weight) | 5 (herbicidal effect of not less than 90% by weight) | 5 (herbicidal effect of not less than 90% by weight) | 5 (herbicidal effect of not less than 90% by weight) | 5 (herbicidal effect of not less than 90% by weight) | 5 (herbicidal effect of not less than 90% by weight) | 5 (herbicidal effect of not less than 90% by weight) | 1 (herbicidal effect of not less than 10% by weight and less than 30% by weight) | 5 (herbicidal effect of not less than 90% by weight) | 0 (herbicidal effect of not less than 0% by weight and less than 10% by weight) | 0 (herbicidal effect of not less than 0% by weight and less than 10% by weight) | 5 (herbicidal effect of not less than 90% by weight) | 5 (herbicidal effect of not less than 90% by weight) | 4 (herbicidal effect of not less than 70% by weight and less than 90% by weight) | 5 (herbicidal effect of not less than 90% by weight) |
